{
  "source": "patent US7732185B2",
  "about": "“Plasmid having response to dioxins, transgenic cell for measuring dioxins, dioxins sensing method and biosensor using the same” (priority 2004, dated 2010)",
  "assay_type_in_all_cases": "cell-based, mouse",
  "key": {"[1]": {"tested_on": "aryl hydrocarbon receptor (AhR)", "experiment": "DRESSA method: SEAP protein activity in conditioned medium of HeDS cells", "conditions": "for induction of SEAP protein activity compared with DMSO control: HeDS cells stimulated by 1 μM", "description": "Each cell clump is treated with trypsin to be removed, transferred to a 96-well culture plate every two wells, and cultured for one week continuously (S5). After the cells become confluent, the culture medium of each well is exchanged with 100 μl of α-MEM containing 1% FBS, and the cells are cultured for 24 hours in the presence or absence of 10 pM TCDD. Then, using 5 μl of the conditioned medium, a predetermined SEAP assay is performed to establish HeDS cells that react with a low concentration of dioxin with the highest sensitivity, and the cells are used for a dioxins sensing bioassay (S6). In this specification, the bioassay method is referred to as DRE-based Sensing of dioxin via Secreted Alkaline phosphatase (hereinafter, abbreviated as the DRESSA method).\nFurther, AhR14 forms a complex with Arnt15 that is a coactivator, enters the nuclear, and is combined with MMTV-DRE11 to activate. As a result, transcription of downstream SEAP gene 12 is promoted, messenger RNA 16 is produced and translated to protein 18 with ribosome 17, and the protein is promptly secreted outside the cell as a SEAP protein. Accordingly, by measuring the activity of the SEAP protein in the conditioned medium, it is possible to determine a level of dioxins to which the cells are exposed. First, HeDS cells with a concentration of 2×10^4/well are seeded in each well of a 96-well culture plate. As a culture medium, 100 μl of A-MEM containing […] is filled into each well (S1). After the cells are cultured for 24 hours to be fixed to the bottom of each well, the culture medium is exchanged, and 1 μl of a liquid sample containing TCDD is added (S2). After culturing for 24 hours, the conditioned medium is sampled every 5 μl (S3), and the SEAP protein activity is measured by procedures as described below.\n(§1) The SEAP protein activity in the conditioned medium is determined as described below. To 5 μl of the conditioned medium is added 15 μl of buffer, the resultant is incubated at 65° C. for 30 minutes, and endogenous alkaline phosphatase activity is inactivated. Added further is 20 μl of buffer containing L-homoarginine that is an inhibitor of endogenous alkaline phosphatase, and the resultant is kept standing for 5 minutes. Then, 15 μl of substrate CSPD is added thereto, the resultant is kept standing at a dark place for 30 minutes, and the degree of chemical emission is measured by a luminometer."}, "[2]": {"tested_on": "aryl hydrocarbon receptor (AhR)", "experiment": "SEAP reporter plasmid comparison of sensor sequences (DRE, MMTV-DRE, MMTV) in Hepa-1c1c7 cells stimulated by TCDD", "description": "SEAP reporter plasmids having MMTV-DRE or only DRE as a sensor sequence were prepared, and each of the plasmids was gene-introduced to a Hepa-1c1c7 cell. In addition, details of gene introduction will be described later. The cells were stimulated by TCDD, and increases in SEAP activity were compared. In the cell to which was introduced the SEAP reporter plasmid only having DRE as a sensor sequence, the SEAP activity increased by 4.5 times by the stimulus of TCDD.\nIn contrast thereto, in the cell (Hepa 1c1c7-DRE-SEAP cell, hereinafter, referred to as an HeDS cell) to which was introduced the SEAP reporter plasmid having MMTV-DRE as a sensor sequence, the SEAP activity increased by 43.2 times by the stimulus of TCDD. […] This means that the sequence of MMTV strongly amplifies the response of DRE to dioxin. The high reactivity of MMTV-DRE enables a fast assay with low cost.\nas §1"}, "[3]": {"tested_on": "aryl hydrocarbon receptor (AhR)", "experiment": "fast DRESSA method: floating HeDS cells, SEAP protein activity in conditioned medium", "description": "as §1\nIn order to perform the above-mentioned DRESSA method easily and economically in a short time, it is possible to simplify the sensing procedures as described above, as shown in FIG. 1a. In other words, 50 μl of the culture medium containing 1 μl of sample is filled into each well of a 96-well culture plate, and immediately, HeDS cells floated in the culture medium are added (total 100 μl) (S1).\nThe conditioned medium is sampled three to four hours later (S2), and the SEAP protein activity is measured (S3). By using this scheme, it is possible to sense 1 pM of TCDD regarded as the sensing limit of the current method within four to five hours. Hereinafter, this method is referred to as a fast DRESSA method. The fast DRESSA method has no difference in sensing sensitivity from the DRESSA method."}},
  "data": [
    {"smiles": "Cc1ccc2cc3c(ccc4ccccc43)c3c2c1CC3", "note": "[3-MC, 3-methylcholanthrene]", "values": [
      {"measurement": "induction of SEAP protein activity compared with DMSO control", "setting": "[1]", "value": "remarkable induction"}
    ]},
    {"smiles": "c1ccc2c(c1)cc1ccc3cccc4ccc2c1c34", "note": "[B[a]P, benzo[a]pyrene]", "values": [
      {"measurement": "induction of SEAP protein activity compared with DMSO control", "setting": "[1]", "value": "remarkable induction"}
    ]},
    {"smiles": "Clc1cc2c(cc1Cl)Oc1cc(Cl)c(Cl)cc1O2", "note": "[TCDD, 2,3,7,8-tetrachlorodibenzo-p-dioxin]", "values": [
      {"measurement": "increase in SEAP activity by the stimulus of TCDD", "setting": "[2]; HeDS cell: SEAP reporter plasmid having MMTV-DRE as sensor sequence", "value": 43.2, "unit": "times"},
      {"measurement": "increase in SEAP activity by the stimulus of TCDD", "setting": "[2]; Hepa-1c1c7 cell with SEAP reporter plasmid only having DRE as sensor sequence", "value": 4.5, "unit": "times"},
      {"measurement": "increase in SEAP activity by the stimulus of TCDD", "setting": "[2]; cell with SEAP reporter plasmid only having MMTV as sensor sequence", "value": "did not increase"},
      {"measurement": "time after addition at which significant increases in SEAP protein activity were already observed", "setting": "[3]; 6 pM TCDD", "value": "three"},
      {"measurement": "time after addition at which significant increases in SEAP protein activity were already observed", "setting": "[3]; 1 nM TCDD", "value": "three"},
      {"measurement": "concentration of TCDD possible to sense", "setting": "[3]; within four to five hours", "value": 1, "unit": "pM"},
      {"measurement": "time after addition at which significant increases in SEAP protein activity are observed", "setting": "[1]; 6 pM TCDD, DMSO control, traced up to 10 hours", "value": "four"},
      {"measurement": "sensing with a reduced number of cells", "setting": "[1]; 1 nM TCDD, 50 cells in one well of a 96-well plate", "value": "can be sensed sufficiently"},
      {"measurement": "concentration of TCDD possible to sense", "setting": "[1]; 5,000 HeDS cells", "value": 0.5, "unit": "pM"},
      {"measurement": "concentration at which significant increases in SEAP protein activity were already observed", "setting": "[1]; HeDS cells exposed to 0 to 1 pM TCDD", "value": 0.25, "unit": "pM"},
      {"measurement": "concentration up to which SEAP protein activity increases dependent on the concentration", "setting": "[1]; HeDS cells, culture medium", "value": "up to 100 pM"},
      {"measurement": "time for which increases in SEAP protein activity continued before reaching equilibrium", "setting": "[1]; TCDD stimulation, traced up to 72 hours", "value": 48, "unit": "h"}
    ]},
    {"smiles": "O=c1cc(-c2ccccc2)oc2ccc3ccccc3c12", "note": "[βNF, β-naphthoflavone]", "values": [
      {"measurement": "induction of SEAP protein activity compared with DMSO control", "setting": "[1]", "value": "remarkable induction"}
    ]}
  ]
}
